Measurements published in PubChem BioAssay AID1963827 (Molecular Pharmacology Branch, DTP, NCI, 2024).
“And” between values parts separate entries of the source, which are not always exact repeats. Identical values can stand only once.

Test system: 994946-033-R-J1-PDC complex spheroid viability
Test: Anticancer human tumor 994946-033-R-J1-PDC patient-derived melanoma cell line growth inhibition [POLQ]
Settings: for viability, T/C: stronger effect = lower value
Description: Multicellular complex tumor spheroid response to Polymerase (POL) inhibitors (novobiocin, ART-558, RP6685) in combination with a variety of drugs and investigational agents in selected tumor cell lines
The POL inhibitors (novobiocin, ART-558, and RP6685) were evaluated both individually and in combination with standard of care and investigational anticancer small molecules within a complex spheroid model of solid tumors. . Complex spheroids include a stromal component modeled by human endothelial cells (HUVEC) and fibroblasts modeled by human mesenchymal stem cells (MSCs). The concentration ranges selected for each drug and investigational agent were based upon clinically achievable concentrations if the clinical Cmax of the agent was known.
Compounds. The drugs and investigational agents: novobiocin (NSC847541), ART-558 (NSC835418), RP-6685 (NSC848927), peposertib (NSC802822), ceralasertib (NSC780249), elimusertib (NSC800525), camonsertib (NSC841442), AZD-1390 (NSC803789), olaparib (NSC753686), talazoparib (NSC767125), rucaparib (NSC756644), sotorasib (NSC818433), MRTX-1133 (NSC836407), SN-38 (NSC673596), topotecan (NSC609699), epotoside (NSC141540), doxorubicin (NSC123127), gemcitabine (NSC613327), 5-fluorouracil (NSC19893), paclitaxel (NSC125973), vemurafenib (NSC761431), MSA-2 (NSC828583), SN-011 (NSC837082), adavosertib (NSC754352), prexasertib (NSC758257), carboplatin (NSC241240) and oxaliplatin (NSC266046), were obtained from the National Cancer Institute (NCI) Developmental Therapeutics Program Chemical Repository (21). The FDA-approved anticancer drug set is available from the Developmental Therapeutics Program at https://dtp.cancer.gov/organization/dscb/obtaining/. […] The stock solutions were prepared in dimethyl sulfoxide (DMSO, Sigma-Aldrich, St. Louis, MO, cat. D2650), except for the platinum compounds which were prepared in saline (Quality Biological, Gaithersburg, MD, cat. 114-055-101), at 800-fold the tested concentration and stored at -70 degrees C prior to their use. All drugs and investigational agents were tested over a range starting from a high concentration at or near the clinical Cmax and decreasing in half-log increments. If the clinical Cmax for an agent had not been determined, the highest concentration tested was 10 microM, except for SN-38, which was tested at a high concentration of 1 microM.
Cell Culture. All cells were maintained in an incubator at 37 degrees C and 5% CO2 with 95% humidity. The PDC lines were cultured according to standard operating procedures established by the NCI PDMR (https://pdmr.cancer.gov). Table 3 of the manuscript, lists the cell lines along with the number of the three cell types plated to form the mct-spheroids and media for tumor cell growth. After thawing, all PDC lines, except 997537-175-T-J1-PDC and 415267-285-R-J2-PDC, were cultured in Matrigel-coated flasks prepared with a working solution of 1X Ham's F-12 nutrient mix, without supplementation (Thermo Fisher Scientific, cat. 11765054), 100 U/mL penicillin-streptomycin (Thermo Fisher Scientific, cat. 15140122), and 2.5% Matrigel (Corning Inc., Corning, NY, cat. 354248) for the first three passages. The two PDC lines 997537-175-T-J1-PDC and 415267-285-R-J2-PDC were cultured on uncoated flasks. The 857933-349-R-J2-PDC line was cultured in 6C/Colon 1B media containing advanced DMEM/F-12 (Thermo Fisher Scientific, cat. 12634028), 10 mM HEPES (Thermo Fisher Scientific, cat. 15630080), 1X GlutaMAX supplement (Thermo Fisher Scientific, cat. 35050061), 0.1 mg/mL primocin (InvivoGen, San Diego, CA, cat. ant-pm-2), 10% defined fetal bovine serum, heat inactivated (HyClone Laboratories Inc., Logan, UT, cat. SH30070.03HI), 50% L-WRN conditioned media (ATCC, cat. CRL-3276), 1.25 mM N-Acetyl-L-cysteine (Sigma-Aldrich, cat. A9165), 10 mM nicotinamide (Sigma-Aldrich, cat. N0636), 1X B-27 supplement (Thermo Fisher Scientific, cat. 17504044), 1X N-2 supplement (Thermo Fisher Scientific, cat. […]
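Also: spheroids exposed to drugs for 7 days.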
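For viability, T/C in this document: 100% = DMSO vehicle treated spheroids.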

**Q.** With COc1ccc([C@@H](O)c2cc(-c3ncnc4cc(N5CCOCC5)ccc34)c(F)cc2Cl)nn1 as the compound, how does the viability, T/C (compound 0.0316 µM) read?
**A.** The viability, T/C was 115% and 94.1% and 79.4%.

**Q.** And the viability, T/C (compound 0.1 µM)?
**A.** Its viability, T/C is 91.2% and 92.7% and 91%.

**Q.** What about the viability, T/C (compound 0.316 µM) of the same compound?
**A.** Its viability, T/C is 81.5% and 95.9% and 99.5%.

**Q.** What about the viability, T/C (compound 1 µM) of the same compound?
**A.** The viability, T/C was 49.6% and 78.9% and 67.1%.

**Q.** And the viability, T/C (compound 3.16 µM)?
**A.** Its viability, T/C is 59.4% and 74.8% and 59%.

**Q.** What about the viability, T/C (compound 10 µM) of the same compound?
**A.** Its viability, T/C is 43.6% and 27.3% and 43.8%.

**Q.** And the IC50 (curve of compound)?
**A.** The IC50 was 4110 nM and 5570 nM and > 10000 nM.

**Q.** For CC1COCCN1c1cc(-c2ccnn2C)c2ccnc(-c3ccn[nH]3)c2n1 (centres undefined) + COC1C(OC(N)=O)C(O)C(Oc2ccc3c(O)c(NC(=O)c4ccc(O)c(CC=C(C)C)c4)c(=O)oc3c2C)OC1(C)C, which IC50 (curve of first compound, second compound 0.0316 µM) is on record?
**A.** Its IC50 is 48.2 nM.

**Q.** And the IC50 (curve of first compound, second compound 0.1 µM)?
**A.** Its IC50 is 79.2 nM.

**Q.** What about the IC50 (curve of first compound, second compound 0.316 µM) of the same compound?
**A.** The IC50 was 151 nM.

**Q.** What about the IC50 (curve of first compound, second compound 1 µM) of the same compound?
**A.** Its IC50 is 77 nM.

**Q.** What about the IC50 (curve of first compound, second compound 3.16 µM) of the same compound?
**A.** The IC50 was 57 nM.

**Q.** And the IC50 (curve of first compound, second compound 10 µM)?
**A.** The IC50 was 58.4 nM.

**Q.** And the viability, T/C (second compound 0.0316 µM, first compound 0.0316 µM)?
**A.** The viability, T/C was 58.2%.

**Q.** What about the viability, T/C (second compound 0.0316 µM, first compound 0.1 µM) of the same compound?
**A.** The viability, T/C was 33.9%.

**Q.** What about the viability, T/C (second compound 0.0316 µM, first compound 0.316 µM) of the same compound?
**A.** The viability, T/C was 31.6%.

**Q.** And the viability, T/C (second compound 0.0316 µM, first compound 1 µM)?
**A.** The viability, T/C was 18.4%.

**Q.** What about the viability, T/C (second compound 0.0316 µM, first compound 3.16 µM) of the same compound?
**A.** Its viability, T/C is 20.4%.

**Q.** What about the viability, T/C (second compound 0.0316 µM, first compound 10 µM) of the same compound?
**A.** The viability, T/C was 11.8%.

**Q.** What about the viability, T/C (second compound 0.1 µM, first compound 0.0316 µM) of the same compound?
**A.** Its viability, T/C is 107%.

**Q.** What about the viability, T/C (second compound 0.1 µM, first compound 0.1 µM) of the same compound?
**A.** The viability, T/C was 35.2%.

**Q.** And the viability, T/C (second compound 0.1 µM, first compound 0.316 µM)?
**A.** The viability, T/C was 21.5%.

**Q.** And the viability, T/C (second compound 0.1 µM, first compound 1 µM)?
**A.** The viability, T/C was 30.3%.

**Q.** And the viability, T/C (second compound 0.1 µM, first compound 3.16 µM)?
**A.** Its viability, T/C is 16.8%.

**Q.** And the viability, T/C (second compound 0.1 µM, first compound 10 µM)?
**A.** Its viability, T/C is 12.3%.

**Q.** And the viability, T/C (second compound 0.316 µM, first compound 0.0316 µM)?
**A.** Its viability, T/C is 72.3%.

**Q.** And the viability, T/C (second compound 0.316 µM, first compound 0.1 µM)?
**A.** Its viability, T/C is 60.4%.

**Q.** What about the viability, T/C (second compound 0.316 µM, first compound 0.316 µM) of the same compound?
**A.** The viability, T/C was 31.5%.

**Q.** What about the viability, T/C (second compound 0.316 µM, first compound 1 µM) of the same compound?
**A.** Its viability, T/C is 22%.

**Q.** What about the viability, T/C (second compound 0.316 µM, first compound 3.16 µM) of the same compound?
**A.** The viability, T/C was 24.5%.

**Q.** And the viability, T/C (second compound 0.316 µM, first compound 10 µM)?
**A.** Its viability, T/C is 13.6%.

**Q.** What about the viability, T/C (second compound 1 µM, first compound 0.0316 µM) of the same compound?
**A.** Its viability, T/C is 100%.

**Q.** What about the viability, T/C (second compound 1 µM, first compound 0.1 µM) of the same compound?
**A.** The viability, T/C was 34.5%.

**Q.** What about the viability, T/C (second compound 1 µM, first compound 0.316 µM) of the same compound?
**A.** The viability, T/C was 23.9%.

**Q.** What about the viability, T/C (second compound 1 µM, first compound 1 µM) of the same compound?
**A.** The viability, T/C was 23.2%.

**Q.** And the viability, T/C (second compound 1 µM, first compound 3.16 µM)?
**A.** Its viability, T/C is 20.8%.

**Q.** And the viability, T/C (second compound 1 µM, first compound 10 µM)?
**A.** The viability, T/C was 12.6%.

**Q.** What about the viability, T/C (second compound 3.16 µM, first compound 0.0316 µM) of the same compound?
**A.** Its viability, T/C is 76.4%.

**Q.** And the viability, T/C (second compound 3.16 µM, first compound 0.1 µM)?
**A.** Its viability, T/C is 24.7%.

**Q.** And the viability, T/C (second compound 3.16 µM, first compound 0.316 µM)?
**A.** Its viability, T/C is 18.2%.

**Q.** What about the viability, T/C (second compound 3.16 µM, first compound 1 µM) of the same compound?
**A.** The viability, T/C was 13.4%.

**Q.** What about the viability, T/C (second compound 3.16 µM, first compound 3.16 µM) of the same compound?
**A.** The viability, T/C was 14.9%.

**Q.** And the viability, T/C (second compound 3.16 µM, first compound 10 µM)?
**A.** The viability, T/C was 13.5%.

**Q.** And the viability, T/C (second compound 10 µM, first compound 0.0316 µM)?
**A.** Its viability, T/C is 69.2%.

**Q.** And the viability, T/C (second compound 10 µM, first compound 0.1 µM)?
**A.** Its viability, T/C is 32%.

**Q.** And the viability, T/C (second compound 10 µM, first compound 0.316 µM)?
**A.** Its viability, T/C is 21.2%.

**Q.** What about the viability, T/C (second compound 10 µM, first compound 1 µM) of the same compound?
**A.** Its viability, T/C is 32%.

**Q.** And the viability, T/C (second compound 10 µM, first compound 3.16 µM)?
**A.** Its viability, T/C is 18.5%.

**Q.** And the viability, T/C (second compound 10 µM, first compound 10 µM)?
**A.** Its viability, T/C is 10.3%.
